One series has as its target T1, JAK2 (h) (Homo sapiens, UniProt O60674).
T1 construct: purchased Millipore UK Ltd (assays performed there as a service)
Put plainly: JAK2 (h) kinase assay. The class given is biochemical. Conditions: [γ-33P-ATP] 10 μM or KM values; 40 minutes at room temperature. Here is the method:
Kinase assays can be performed by measurement of incorporation of γ-^33P ATP into immobilized myelin basic protein (MBP). High binding white 384 well plates (Greiner) are coated with MBP (Sigma # M-1891) by incubation of 60 μL well of 20 μg/mL MBP in Tris-buffered saline (TBS; 50 mM Tris pH 8.0, 138 mM NaCl, 2.7 mM KCl) for 24 h at 4° C. Plates are washed 3× with 100 μL TBS. Kinase reactions are carried out in a total volume of 34 μL in kinase buffer (according to the need to make, for example, 5 mM Hepes pH 7.6, 15 mM NaCl, 0.01% bovine gamma globulin (Sigma #1-5506), 10 mM MgCl2, 1 mM DTT, 0.02% TritonX-100). Compound dilutions are performed in DMSO and added to assay wells to a final DMSO concentration of 1%. Each data point is measured in duplicate, and at least two duplicate assays are performed for each individual compound determination. Enzyme is added to final concentrations of 10 nM or 20 nM, for example. A mixture of unlabeled ATP and γ-^33P ATP is added to start the reaction (2×10^6 cpm of γ-^33P ATP per well (3000 Ci/mmole) and 10 μM unlabeled ATP, typically. The reactions are carried out for 1 hour at room temperature with shaking. Plates are washed 7× with TBS, followed by the addition of 50 μL well scintillation fluid (Wallac). Plates are read using a Wallac Trilux counter. This is only one format of such assays; various other formats are possible, as known to one skilled in the art.
(§1) The above assay procedure can be used to determine the IC50 for inhibition and/or the inhibition constant, Ki. […] The IC50 value is estimated by preparing a 10 point curve using a ½ log dilution series (for example, a typical curve may be prepared using the following compound concentrations: 3 μM, 1 μM, 0.3 μM, 0.1 μM, 0.03 μM, 0.01 μM, 0.003 μM, 0.001 μM, 0.0003 μM and 0 μM).
JAK2 (h) is incubated with 8 mM MOPS pH 7.0, 0.2 mM EDTA, 100 μM […], 10 mM MgAcetate and [γ-^33P-ATP] […] The reaction is initiated by the addition of the MgATP mix. After incubation for 40 minutes at room temperature, the reaction is stopped by the addition of 3% phosphoric acid solution. 10 μL of the reaction is then spotted onto a P30 filtermat and washed three times for 5 minutes in 75 mM phosphoric acid and once in methanol prior to drying and scintillation counting.
(§2) The kinase assays described herein were performed at Millipore UK Ltd, Dundee Technology Park, Dundee DD2 1SW, UK.

The target of a further series is T2, JAK1 (h) (Homo sapiens, UniProt P23458).
T2 construct: purchased Millipore UK Ltd (assays performed there as a service)
The series is described as follows: JAK1 (h) kinase assay. It counts as biochemical. Particulars: [γ-33P-ATP] 10 μM or KM values; 40 minutes at room temperature. Here is the method:
as §1
JAK1 (h) is incubated with 20 mM Tris/HCl pH 7.5, 0.2 mM EDTA, 500 μM […], 10 mM MgAcetate and [γ-^33P-ATP] […] The reaction is initiated by the addition of the MgATP mix. After incubation for 40 minutes at room temperature, the reaction is stopped by the addition of 3% phosphoric acid solution. 10 μL of the reaction is then spotted onto a P30 filtermat and washed three times for 5 minutes in 75 mM phosphoric acid and once in methanol prior to drying and scintillation counting.
as §2

The target of the next series is T3, Aurora-A (h) (Homo sapiens, UniProt O14965).
T3 construct: purchased Millipore UK Ltd (assays performed there as a service)
T3 sequence (O14965 1-403): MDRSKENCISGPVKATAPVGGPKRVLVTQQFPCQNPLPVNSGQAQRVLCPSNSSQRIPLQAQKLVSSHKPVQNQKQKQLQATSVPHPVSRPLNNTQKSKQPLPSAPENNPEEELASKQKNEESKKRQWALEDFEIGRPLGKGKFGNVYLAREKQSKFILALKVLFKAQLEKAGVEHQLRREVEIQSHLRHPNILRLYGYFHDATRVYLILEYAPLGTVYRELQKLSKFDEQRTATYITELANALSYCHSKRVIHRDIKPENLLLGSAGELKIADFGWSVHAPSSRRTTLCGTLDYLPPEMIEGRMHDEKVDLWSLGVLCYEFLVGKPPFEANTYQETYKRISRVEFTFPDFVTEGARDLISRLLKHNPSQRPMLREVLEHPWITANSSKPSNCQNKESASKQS
Put plainly: Aurora-A (h) kinase assay. Conditions: [γ-33P-ATP] 10 μM or KM values; 40 minutes at room temperature. The class given is biochemical. Here is the method: as §1
Aurora-A (h) is incubated with 8 mM MOPS pH 7.0, 0.2 mM EDTA, 200 μM LRRASLG (Kemptide), 10 mM MgAcetate and [γ-^33P-ATP] […] The reaction is initiated by the addition of the MgATP mix. After incubation for 40 minutes at room temperature, the reaction is stopped by the addition of 3% phosphoric acid solution. 10 μL of the reaction is then spotted onto a P30 filtermat and washed three times for 5 minutes in 75 mM phosphoric acid and once in methanol prior to drying and scintillation counting.
as §2

Series [1] can be described thus: Pharmacokinetics after intravenous and oral administration in rats. It counts as in vivo. Particulars: for Clearance (CL) after iv dosing / AUC(0-t) / half-life / Vd: dose 1 mg/kg (Ex. 9: 0.6, Ex. 18: 0.5, Ex. 50: 0.96 mg/kg), iv dosing; for AUC(0-t) / half-life / Vd / bioavailability: rat, plasma; for Vd: read-out: Vss; for bioavailability: oral (generally 5 or 10 mg/kg) versus iv dosing, read-out: F (oral bioavailability). The procedure, abridged: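 Rats dosed i.v. (about 0.5, 0.6, 1 or 2 mg/kg) or p.o. (5 or 10 mg/kg) as solution, suspension or capsule. Plasma sampled over 24 h and quantified by LC/MS/MS in MRM mode with ESI.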

The nature of series [2]: Compound stability in rat liver microsomes. Particulars: for CLint scaled at 5 μM: liver microsomes, pH 7.4, in vivo CLint extrapolated from rat liver microsome incubation; for half-life at 5 μM: rat liver microsomes 0.5 mg protein/mL, compound 5 μM, NADPH 1.0 mM, pH 7.4, 37° C., read-out: Rat T1/2. It counts as in vitro ADME. The procedure, abridged: (§3)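 Compounds (5 μM) incubated at 37 °C with human or rat liver microsomes (0.5 mg protein/mL) and 1.0 mM NADPH in 100 mM phosphate buffer pH 7.4, 0.05% DMSO, in duplicate. Sampled 0–60 min, quantified by LC/MS/MS as % of time zero; CLint extrapolated.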

Series [3] can be described thus: Compound stability in human liver microsomes. The class given is in vitro ADME. Particulars: for half-life at 5 μM: human liver microsomes 0.5 mg protein/mL, compound 5 μM, NADPH 1.0 mM, pH 7.4, 37° C., read-out: Human T1/2; for CLint scaled at 5 μM: liver microsomes, pH 7.4, in vivo CLint extrapolated from human liver microsome incubation. In short, it runs like this:
as §3

The structures appear in SMILES notation.

T1 sequence (O60674 whole entry): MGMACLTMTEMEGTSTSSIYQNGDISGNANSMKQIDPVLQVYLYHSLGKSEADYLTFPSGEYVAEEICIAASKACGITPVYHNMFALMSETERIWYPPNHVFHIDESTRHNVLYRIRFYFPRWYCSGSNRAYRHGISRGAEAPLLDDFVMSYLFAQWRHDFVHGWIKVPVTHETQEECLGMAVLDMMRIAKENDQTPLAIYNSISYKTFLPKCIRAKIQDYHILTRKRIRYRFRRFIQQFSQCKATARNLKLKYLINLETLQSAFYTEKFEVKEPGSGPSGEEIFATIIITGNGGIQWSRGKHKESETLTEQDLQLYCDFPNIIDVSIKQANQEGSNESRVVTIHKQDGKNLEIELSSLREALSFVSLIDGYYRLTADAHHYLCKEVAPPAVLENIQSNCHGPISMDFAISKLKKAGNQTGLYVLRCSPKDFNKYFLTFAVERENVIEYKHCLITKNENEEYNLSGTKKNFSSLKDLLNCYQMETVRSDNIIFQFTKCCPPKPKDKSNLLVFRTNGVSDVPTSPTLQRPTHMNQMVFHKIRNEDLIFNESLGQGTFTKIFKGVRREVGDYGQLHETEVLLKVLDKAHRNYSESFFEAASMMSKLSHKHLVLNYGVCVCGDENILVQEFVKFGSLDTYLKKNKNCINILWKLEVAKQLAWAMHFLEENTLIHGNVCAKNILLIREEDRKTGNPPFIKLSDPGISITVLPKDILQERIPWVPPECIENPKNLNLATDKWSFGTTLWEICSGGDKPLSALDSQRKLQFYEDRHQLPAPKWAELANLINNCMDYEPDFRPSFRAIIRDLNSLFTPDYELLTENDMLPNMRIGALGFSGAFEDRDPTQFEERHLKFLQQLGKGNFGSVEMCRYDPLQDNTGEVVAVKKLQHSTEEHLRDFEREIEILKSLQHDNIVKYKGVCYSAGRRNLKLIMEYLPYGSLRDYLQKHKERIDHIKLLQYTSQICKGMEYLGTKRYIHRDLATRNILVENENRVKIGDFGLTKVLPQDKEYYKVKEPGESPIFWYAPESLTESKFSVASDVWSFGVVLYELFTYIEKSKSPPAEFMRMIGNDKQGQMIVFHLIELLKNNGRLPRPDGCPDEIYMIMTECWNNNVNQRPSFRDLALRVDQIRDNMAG
T2 sequence (P23458 whole entry): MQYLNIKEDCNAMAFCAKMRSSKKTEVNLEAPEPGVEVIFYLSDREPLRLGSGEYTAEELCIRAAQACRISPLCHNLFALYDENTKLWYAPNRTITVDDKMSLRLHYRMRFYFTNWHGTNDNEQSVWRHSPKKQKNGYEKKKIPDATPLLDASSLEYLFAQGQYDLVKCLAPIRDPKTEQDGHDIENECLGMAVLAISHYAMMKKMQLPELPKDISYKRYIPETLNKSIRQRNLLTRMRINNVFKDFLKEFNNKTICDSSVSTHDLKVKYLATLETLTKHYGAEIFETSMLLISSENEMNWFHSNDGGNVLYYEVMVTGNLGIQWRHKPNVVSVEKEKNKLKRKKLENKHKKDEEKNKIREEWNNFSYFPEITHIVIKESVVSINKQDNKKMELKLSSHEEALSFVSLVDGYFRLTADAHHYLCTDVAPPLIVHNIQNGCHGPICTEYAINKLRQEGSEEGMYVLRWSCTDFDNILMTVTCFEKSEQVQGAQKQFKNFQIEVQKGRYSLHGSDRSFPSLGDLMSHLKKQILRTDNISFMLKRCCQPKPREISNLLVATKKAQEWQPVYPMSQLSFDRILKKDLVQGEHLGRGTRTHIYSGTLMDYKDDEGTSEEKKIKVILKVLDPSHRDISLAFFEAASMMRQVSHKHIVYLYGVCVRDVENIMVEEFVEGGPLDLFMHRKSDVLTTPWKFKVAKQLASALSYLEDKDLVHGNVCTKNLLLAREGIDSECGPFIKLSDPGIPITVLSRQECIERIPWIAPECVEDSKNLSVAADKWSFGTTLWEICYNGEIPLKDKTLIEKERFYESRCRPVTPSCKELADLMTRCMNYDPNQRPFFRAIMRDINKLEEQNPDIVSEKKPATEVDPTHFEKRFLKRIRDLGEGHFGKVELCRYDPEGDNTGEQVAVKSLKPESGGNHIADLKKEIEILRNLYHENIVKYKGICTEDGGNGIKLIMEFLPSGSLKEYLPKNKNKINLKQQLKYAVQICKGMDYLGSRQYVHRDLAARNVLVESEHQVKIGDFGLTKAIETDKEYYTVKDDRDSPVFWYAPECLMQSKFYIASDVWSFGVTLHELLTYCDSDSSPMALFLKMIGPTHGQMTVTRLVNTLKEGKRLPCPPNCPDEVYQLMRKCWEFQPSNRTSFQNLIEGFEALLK

In the case of `Cc1cn2ccc(Nc3ncc(Cl)c(NC4CCN(c5ccc(C#N)nn5)CC4)n3)cc2n1` [Example 27, 6-(4-((5-chloro-2-((2-methylimidazo[1,2-a]pyridin-7-yl)amino)pyrimidin-4-yl)amino)piperidin-1-yl)pyridazine-3-carbonitrile], the IC50 (in general, the concentration at which inhibition is half-maximal) at JAK2 (h) was 10 nM; on JAK1 (h) it was below 0.3 nM; on Aurora-A (h) it was 467 nM.
`N#Cc1ccc(N2CCC(Nc3nc(Nc4ccn5cc(C(F)F)nc5c4)ncc3Cl)CC2)nn1` [Example 28, 6-(4-((5-chloro-2-((2-(difluoromethyl)imidazo[1,2-a]pyridin-7-yl)amino)pyrimidin-4-yl)amino)piperidin-1-yl)pyridazine-3-carbonitrile]: in series [1], the “Clearance (CL) after iv dosing” value amounted to 14 mL/min/kg; the AUC(0-t) – broadly, the area under the concentration-time curve up to a stated or last time point – was 1220 ng·h/mL; the half-life was 33.6 min; the Vd worked out at 0.56 L/kg. In series [1], the bioavailability – broadly, dose-corrected exposure relative to a reference, in per cent – was 56.1%. In series [2], the CLint scaled (in general, the capacity of the preparation to metabolise the compound, expressed as a volume cleared per time) at 5 μM is 164 mL/min/kg and the half-life at 5 μM was found to be 15.1 min. The molecule also showed an IC50 against JAK1 (h) of 0.5 nM. Moreover, in series [3], the half-life at 5 μM is 41.5 min and the CLint scaled at 5 μM was 41.9 mL/min/kg.
As to `CC(C)(O)Cc1cn2ccc(Nc3ncc(Cl)c(NC4CCN(c5ccc(C#N)nn5)CC4)n3)cc2n1` [Example 38, 6-(4-((5-chloro-2-((2-(2-hydroxy-2-methylpropyl)imidazo[1,2-a]pyridin-7-yl)amino)pyrimidin-4-yl)amino)piperidin-1-yl)pyridazine-3-carbonitrile], the IC50 was 41 nM at JAK2 (h), 0.9 nM at JAK1 (h) and 440 nM against Aurora-A (h).
The like results for `CC(C)(O)Cc1cnc2cc(Nc3ncc(Cl)c(NC4CCN(c5ccc(C#N)cn5)CC4)n3)ccn12` [Example 42, 6-(4-((5-chloro-2-((3-(2-hydroxy-2-methylpropyl)imidazo[1,2-a]pyridin-7-yl)amino)pyrimidin-4-yl)amino)piperidin-1-yl)nicotinonitrile] were, in that order, 23 nM, below 0.3 nM and 1460 nM.
The like results for `CC(O)Cc1nc2cc(Nc3ncc(Cl)c(NC4CCN(c5ccc(C#N)cn5)CC4)n3)ccn2n1` (centres unmarked) [Example 57, 6-(4-((5-chloro-2-((2-(2-hydroxypropyl)-[1,2,4]triazolo[1,5-a]pyridin-7-yl)amino)pyrimidin-4-yl)amino)piperidin-1-yl)nicotinonitrile] were, in that order, 5 nM, 0.9 nM and above 300 nM.
For the molecule `COC(=O)Cc1nc2cc(Nc3ncc(Cl)c(NC4CCN(c5ccc(C#N)nn5)CC4)n3)ccn2n1` [Example 58, methyl 2-(7-((5-chloro-4-((1-(6-cyanopyridazin-3-yl)piperidin-4-yl)amino)pyrimidin-2-yl)amino)-[1,2,4]triazolo[1,5-a]pyridin-2-yl)acetate], the figures for the IC50 against JAK2 (h), on JAK1 (h) and against Aurora-A (h) were 27 nM, 0.8 nM and above 300 nM, respectively.
As for `CC(C)(O)c1cnc2cc(Nc3ncc(Cl)c(NC4CCN(c5ccc(C#N)nn5)CC4)n3)ccn12` [Example 66, 6-(4-((5-chloro-2-((3-(2-hydroxypropan-2-yl]imidazo[1,2-a]pyridin-7-yl)amino)pyrimidin-4-yl)amino)piperidin-1-yl)pyridazine-3-carbonitrile], in series [2], the CLint scaled at 5 μM is 68.5 mL/min/kg and the half-life at 5 μM worked out at 36.2 min. Also, the IC50 against JAK1 (h) turned out to be 0.3 nM. In series [3], the half-life at 5 μM is 25.6 min and the CLint scaled at 5 μM is 67.9 mL/min/kg.
The like results for `CC(C)(O)c1cn2ccc(Nc3ncc(Cl)c(NC4CCN(c5ccc(C#N)nn5)CC4)n3)cc2n1` [Example 71] were, in that order, 438 mL/min/kg, 5.67 min, 0.9 nM, 18.9 min and 91.8 mL/min/kg.
The like results for `CC(C)(O)Cc1cnc2cc(Nc3ncc(Cl)c(NC4CCN(c5ccc(C#N)nn5)CC4)n3)ccn12` [Example 80, 6-(4-((5-chloro-2-((3-(2-hydroxy-2-methylpropyl)imidazo[1,2-a]pyridin-7-yl)amino)pyrimidin-4-yl)amino)piperidin-1-yl)pyridazine-3-carbonitrile] were, in that order, 131 mL/min/kg, 19 min, 0.6 nM, 40.7 min and 42.7 mL/min/kg.
In the case of `CC(C)(O)c1nc2cc(Nc3ncc(Cl)c(NC4CCN(c5ccc(C#N)cc5)CC4)n3)ccn2n1` [Example 81, 4-(4-((5-chloro-2-((2-(2-hydroxypropan-2-yl)-[1,2,4]triazolo[1,5-a]pyridin-7-yl)amino)pyrimidin-4-yl)amino)piperidin-1-yl)benzonitrile], in series [1], the “Clearance (CL) after iv dosing” value turned out to be 162 mL/min/kg, the AUC(0-t) was determined as 1710 ng·h/mL, the half-life is 79.8 min and the Vd came out at 0.946 L/kg. Besides, the bioavailability in series [1] is 99.6%. In addition, in series [2], the CLint scaled at 5 μM is 25.5 mL/min/kg and the half-life at 5 μM was 97.3 min. Also, at JAK1 (h), the concentration for half-maximal inhibition (IC50) was below 0.3 nM. In series [3], the half-life at 5 μM was 419 min and the CLint scaled at 5 μM is 4.1 mL/min/kg.

These data come from US10683297B2 (Sunshine Lake Pharma Co., Ltd., priority 2017, dated 2020).
